Patent publication US20250074873A1, “COMPOUNDS” (Psylo Pty Ltd, priority 2021, published 2025)
Read-outs that look alike come from different tables or passages of the source.

Assays:
Format in all cases: cell-based
5-HT2A receptor = biological target: T1, 5-HT2A receptor (Homo sapiens, UniProt P28223); assay: FLIPR Ca2+ flux functional assay, 5-HT2A agonist activity
T1 construct: host or cells: HEK293
Method: (§1) Functional Assays 5-HT2A, 5-HT2B and 5-HT2C Receptors
(§2) Activity at 5-HT2A, 5-HT2B and 5-HT2C receptors was determined using a FLIPR Ca2+ flux assay at WuXi AppTec Co. Ltd. (Hong Kong) Discovery Biology Unit according to their standard protocols. Briefly, stably transfected cells expressing the receptor of interest (HEK293 for 5-HT2A and 5-HT2C; CHO-K1 for 5-HT2B) were grown and plated in a 384 well plate and incubated at 37° C. and 5% 002 overnight. A 250 mM stock solution of probenecid in FLIPR calcium assay buffer (10 mL) was freshly prepared and combined with a fluorescent dye (Fluo-4 Direct) to give a final assay concentration of 2.5 mM. Reference compounds were 4-fold serially diluted and the screening compounds were 3-fold serially diluted in 100% DMSO for 10 points using Agilent Bravo, and 750 nL was added to a 384 well compound plate using Echo along with 30 μL assay buffer. The fluorescent dye was then added to the assay plate along with assay buffer to a final volume of 40 μL. The cell plate was incubated for […] at 37° C. and 5% 002 and placed into the FLIPR Tetra along with the compound plate. 10 μL of references and compounds were then transferred from the compound plate into the cell plate and the fluorescent signal was read.

5-HT2B receptor = biological target: T2, 5-HT2B receptor (Homo sapiens, UniProt P41595); assay: FLIPR Ca2+ flux functional assay, 5-HT2B agonist activity
T2 construct: host or cells: CHO-K1
T2 sequence (P41595 whole entry): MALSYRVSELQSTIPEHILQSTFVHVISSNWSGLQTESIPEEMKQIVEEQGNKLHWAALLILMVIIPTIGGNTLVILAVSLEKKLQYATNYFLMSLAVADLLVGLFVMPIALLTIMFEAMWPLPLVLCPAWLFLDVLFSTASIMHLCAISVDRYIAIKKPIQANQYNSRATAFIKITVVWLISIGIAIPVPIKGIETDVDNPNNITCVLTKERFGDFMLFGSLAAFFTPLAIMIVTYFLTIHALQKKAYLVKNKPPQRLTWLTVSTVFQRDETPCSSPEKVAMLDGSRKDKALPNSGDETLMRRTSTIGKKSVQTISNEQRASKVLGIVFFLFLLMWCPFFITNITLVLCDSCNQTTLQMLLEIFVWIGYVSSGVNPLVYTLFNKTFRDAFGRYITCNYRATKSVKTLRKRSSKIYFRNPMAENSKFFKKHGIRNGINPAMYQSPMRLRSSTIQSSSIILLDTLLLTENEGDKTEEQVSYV
Method: as §1, §2

5-HT2C receptor = biological target: T3, 5-HT2C receptor (Homo sapiens, UniProt P28335); assay: FLIPR Ca2+ flux functional assay, 5-HT2C agonist activity
T3 construct: host or cells: HEK293
T3 sequence (P28335 33-458): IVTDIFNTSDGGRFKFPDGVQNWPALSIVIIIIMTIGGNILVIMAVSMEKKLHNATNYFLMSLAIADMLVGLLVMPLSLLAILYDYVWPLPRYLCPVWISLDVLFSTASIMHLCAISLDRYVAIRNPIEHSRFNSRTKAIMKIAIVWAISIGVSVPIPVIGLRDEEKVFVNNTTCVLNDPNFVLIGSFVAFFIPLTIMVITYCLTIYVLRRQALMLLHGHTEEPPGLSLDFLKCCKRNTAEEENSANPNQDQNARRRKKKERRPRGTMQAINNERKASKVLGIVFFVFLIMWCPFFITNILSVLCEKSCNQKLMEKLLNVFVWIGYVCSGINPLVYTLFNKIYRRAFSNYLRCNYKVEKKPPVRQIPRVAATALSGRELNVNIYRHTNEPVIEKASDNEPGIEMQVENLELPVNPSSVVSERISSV
Method: as §1, §2

[1] = agonist activity, Ca2+ flux, stably transfected HEK293 cells
[2] = agonist activity, Ca2+ flux, stably transfected CHO-K1 cells

T1 sequence (P28223 whole entry): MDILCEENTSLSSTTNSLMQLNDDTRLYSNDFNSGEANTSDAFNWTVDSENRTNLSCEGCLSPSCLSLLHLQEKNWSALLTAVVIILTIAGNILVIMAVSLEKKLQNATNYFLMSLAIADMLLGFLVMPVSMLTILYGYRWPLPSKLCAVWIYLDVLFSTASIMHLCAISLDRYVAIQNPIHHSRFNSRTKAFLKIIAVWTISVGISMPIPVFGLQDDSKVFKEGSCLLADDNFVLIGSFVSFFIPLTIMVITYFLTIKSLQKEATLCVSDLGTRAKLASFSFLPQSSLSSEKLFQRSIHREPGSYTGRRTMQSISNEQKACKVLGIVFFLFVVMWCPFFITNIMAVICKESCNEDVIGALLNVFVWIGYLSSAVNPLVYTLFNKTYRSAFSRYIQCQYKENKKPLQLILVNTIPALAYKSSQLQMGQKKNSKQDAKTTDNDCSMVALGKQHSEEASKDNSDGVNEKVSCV

SMILES | EC50 (5-HT2A receptor) [nM] | Emax (5-HT2A receptor; [1]) [%] | EC50 (5-HT2B receptor) [nM] | Emax (5-HT2B receptor; [2]) [%] | EC50 (5-HT2C receptor) [nM] | Emax (5-HT2C receptor; [1]) [%] | EC50 (5-HT2A receptor; agonist activity, Ca2+ flux, stably transfected HEK293 cells, read-out: 5-HT2A EC50) [nM] | EC50 (5-HT2B receptor; agonist activity, Ca2+ flux, stably transfected CHO-K1 cells, read-out: 5-HT2B EC50) [nM] | EC50 (5-HT2C receptor; agonist activity, Ca2+ flux, stably transfected HEK293 cells, read-out: 5-HT2c EC50) [nM]
CN(C)CCc1c[nH]c2ccc(C(F)(F)F)cc12 [Compound P-15, N,N-dimethyl-2-(5-(trifluoromethyl)-1H-indol-3-yl)ethan-1-amine] | 186 | 28.7 | > 10000 | 7.41 | 89.7 | 88.8 |  |  | 
CCN(CCc1c[nH]c2ccccc12)CC(C)C [Compound P-22, N-(2-(1H-indol-3-yl)ethyl)-N-ethyl-2-methylpropan-1-amine] | 389 | 52.8 | 1140 | 28 | 960 | 58.4 |  |  | 
CN(C)CCc1c[nH]c2ccc(OC(F)(F)F)cc12 [Compound P-5, N,N-dimethyl-2-(5-(trifluoromethoxy)-1H-indol-3-yl)ethan-1-amine] | 171 | 40.5 | > 10000 | -0.27 | 520 | 55.1 |  |  | 
CCCN(CCc1c[nH]c2cccc(OC)c12)C(C)C [Compound P-26, N-isopropyl-N-(2-(4-methoxy-1H-indol-3-yl)ethyl)propan-1-amine] | 36.5 | 81.6 | 103 | 96 | 106 | 87.1 |  |  | 
CCC(C)N(C)CCc1c[nH]c2cccc(OC)c12 (stereo not drawn) [Compound P-23, N-(2-(4-methoxy-1H-indol-3-yl)ethyl)-N-methylbutan-2-amine] | 124 | 50.3 | > 10000 | -0.21 | 465 | 21.7 |  |  | 
CCC(C)N(C)CCc1c[nH]c2ccc(OC)cc12 (stereo not drawn) [Compound P-16, N-(2-(5-methoxy-1H-indol-3-yl)ethyl)-N-methylbutan-2-amine] | 36.9 | 58.5 | > 10000 | -1.2 | 553 | 59.5 |  |  | 
CCC(C)N(CC)CCc1c[nH]c2cccc(O)c12 (stereo not drawn) [Compound P-139, 3-(2-(sec-butyl(ethyl)amino)ethyl)-1H-indol-4-ol] | 54 | 107 | > 10000 | 15.7 | 1900 | 55.2 |  |  | 
COc1ccc2[nH]cc(CCN(C)C3COC3)c2c1 [Compound P-164, N-(2-(5-methoxy-1H-indol-3-yl)ethyl)-N-methyloxetan-3-amine] |  | 57.5 |  | 1.26 |  | 59.9 | 671 | ≥ 10000 | 6280
CCCN(CCc1c[nH]c2ccc(OC)cc12)C(C)C [Compound P-17, N-isopropyl-N-(2-(5-methoxy-1H-indol-3-yl)ethyl)propan-1-amine] | 13.8 | 89 | 138 | 69.2 | 185 | 82.1 |  |  | 
CN(C)CCc1c[nH]c2cccc(OC(F)(F)F)c12 [Compound P-4, N,N-dimethyl-2-(4-(trifluoromethoxy)-1H-indol-3-yl)ethan-1-amine] | 52.8 | 34.6 | > 10000 | -0.97 | 15.9 | 66.6 |  |  | 
CCN(CCc1c[nH]c2cccc(O)c12)CC(C)C [Compound P-140, 3-(2-(ethyl(isobutyl)amino)ethyl)-1H-indol-4-ol] | 27.7 | 97.5 | > 10000 | 17.5 | 992 | 95.4 |  |  | 
CCC(C)N(C)CCc1c[nH]c2ccccc12 (stereo not drawn) [Compound P-20, N-(2-(1H-indol-3-yl)ethyl)-N-methylbutan-2-amine] | 91.2 | 16.1 | > 10000 | 0.83 | 646 | 58.8 |  |  | 
CCCN(C)CCc1c[nH]c2ccc(OC(F)(F)F)cc12 [Compound P-34, N-methyl-N-(2-(5-(trifluoromethoxy)-1H-indol-3-yl)ethyl)propan-1-amine] | 665 | 53.7 | > 10000 | 18.9 | 329 | 81.7 |  |  | 
COc1ccc2[nH]cc(CCN(C)C3CCC3)c2c1 [Compound P-163, N-(2-(5-methoxy-1H-indol-3-yl)ethyl)-N-methylcyclobutanamine] | 25.4 | 90.5 | ≥ 10000 | 2.29 | 128 | 75.9 |  |  | 
COc1cccc2[nH]cc(CCN(C)CC(C)C)c12 [Compound P-136, N-(2-(4-methoxy-1H-indol-3-yl)ethyl)-N,2-dimethylpropan-1-amine] | 91.5 | 100 | > 10000 | -1.63 | 261 | 78.5 |  |  | 
CCCN(CCc1c[nH]c2cccc(O)c12)C(C)C [Compound P-141, 3-(2-(isopropyl(propyl)amino)ethyl)-1H-indol-4-ol] | 13.8 | 105 | 330 | 62.2 | 422 | 92 |  |  | 
CCN(CCc1c[nH]c2cccc(OC)c12)C(C)C [Compound P-25, N-ethyl-N-(2-(4-methoxy-1H-indol-3-yl)ethyl)propan-2-amine] | 121 | 85.9 | 459 | 61.4 | 676 | 77.8 |  |  | 
CCC(C)N(CC)CCc1c[nH]c2ccc(OC)cc12 (stereo not drawn) [Compound P-19, N-ethyl-N-(2-(5-methoxy-1H-indol-3-yl)ethyl)butan-2-amine] | 33.3 | 70.3 | 1400 | 44.5 | 933 | 76.8 |  |  | 
CCN(CCc1c[nH]c2ccc(OC)cc12)CC(C)C [Compound P-18, N-ethyl-N-(2-(5-methoxy-1H-indol-3-yl)ethyl)-2-methylpropan-1-amine] | 47.9 | 79.5 | 867 | 51.8 | 1130 | 68.9 |  |  | 
Cc1cccc2[nH]cc(CCN(C)C(C)C)c12 [Compound P-42, N-methyl-N-(2-(4-methyl-1H-indol-3-yl)ethyl)propan-2-amine] | 39.6 | 94.7 | 814 | 41.4 | 48.6 | 91.2 |  |  | 
CCN(CCc1c[nH]c2cccc(O)c12)C(C)C [Compound P-138, 3-(2-(ethyl(isopropyl)amino)ethyl)-1H-indol-4-ol] | 19.9 | 105 | 322 | 53.5 | 862 | 83.3 |  |  | 
CCN(CCc1c[nH]c2cccc(OC)c12)CC(C)C [Compound P-137, N-ethyl-N-(2-(4-methoxy-1H-indol-3-yl)ethyl)-2-methylpropan-1-amine] | 85.6 | 95.8 | > 10000 | 19.4 | 138 | 96.2 |  |  | 
CCC(C)N(CC)CCc1c[nH]c2cccc(OC)c12 (stereo not drawn) [Compound P-24, N-ethyl-N-(2-(4-methoxy-1H-indol-3-yl)ethyl)butan-2-amine] | 70.2 | 77.7 | 444 | 52.6 | 964 | 68.6 |  |  | 
CCC(C)N(CC)CCc1c[nH]c2ccccc12 (stereo not drawn) [Compound P-21, N-(2-(1H-indol-3-yl)ethyl)-N-ethylbutan-2-amine] | 148 | 71.5 | > 10000 | 37.2 | 974 | 61.5 |  |  | 
COc1ccc2[nH]cc(CCN(C)C3CC3)c2c1 [Compound P-162, N-(2-(5-methoxy-1H-indol-3-yl)ethyl)-N-methylcyclopropanamine] | 4.83 | 95.6 | ≥ 10000 | 12 | 10.6 | 89.2 |  |  | 
